How the values were obtained:
Parameters in all cases: scale not given: the % may be the effect or the level left
[1] = target: RAC-alpha serine/threonine-protein kinase (Homo sapiens) (UniProt P31749); experiment: Inhibition of human AKT1 assessed as enzyme activity at 1 uM using KGSGSGRPRTSSFAEG as substrate preincubated for 20 mins followed by [gamma-33P]-ATP addition and measured after 120 mins by radiometric Hot-SpotSM Kinase assay relative to control
[2] = target: Ephrin type-A receptor 4 (Homo sapiens) (UniProt P54764); experiment: Inhibition of human EPHA4 assessed as enzyme activity at 1 uM using poly[Glu:Tyr] (4:1) as substrate preincubated for 20 mins followed by [gamma-33P]-ATP addition and measured after 120 mins by radiometric Hot-SpotSM Kinase assay relative to control
Chain of Ephrin type-A receptor 4 (Homo sapiens) (P54764 whole entry): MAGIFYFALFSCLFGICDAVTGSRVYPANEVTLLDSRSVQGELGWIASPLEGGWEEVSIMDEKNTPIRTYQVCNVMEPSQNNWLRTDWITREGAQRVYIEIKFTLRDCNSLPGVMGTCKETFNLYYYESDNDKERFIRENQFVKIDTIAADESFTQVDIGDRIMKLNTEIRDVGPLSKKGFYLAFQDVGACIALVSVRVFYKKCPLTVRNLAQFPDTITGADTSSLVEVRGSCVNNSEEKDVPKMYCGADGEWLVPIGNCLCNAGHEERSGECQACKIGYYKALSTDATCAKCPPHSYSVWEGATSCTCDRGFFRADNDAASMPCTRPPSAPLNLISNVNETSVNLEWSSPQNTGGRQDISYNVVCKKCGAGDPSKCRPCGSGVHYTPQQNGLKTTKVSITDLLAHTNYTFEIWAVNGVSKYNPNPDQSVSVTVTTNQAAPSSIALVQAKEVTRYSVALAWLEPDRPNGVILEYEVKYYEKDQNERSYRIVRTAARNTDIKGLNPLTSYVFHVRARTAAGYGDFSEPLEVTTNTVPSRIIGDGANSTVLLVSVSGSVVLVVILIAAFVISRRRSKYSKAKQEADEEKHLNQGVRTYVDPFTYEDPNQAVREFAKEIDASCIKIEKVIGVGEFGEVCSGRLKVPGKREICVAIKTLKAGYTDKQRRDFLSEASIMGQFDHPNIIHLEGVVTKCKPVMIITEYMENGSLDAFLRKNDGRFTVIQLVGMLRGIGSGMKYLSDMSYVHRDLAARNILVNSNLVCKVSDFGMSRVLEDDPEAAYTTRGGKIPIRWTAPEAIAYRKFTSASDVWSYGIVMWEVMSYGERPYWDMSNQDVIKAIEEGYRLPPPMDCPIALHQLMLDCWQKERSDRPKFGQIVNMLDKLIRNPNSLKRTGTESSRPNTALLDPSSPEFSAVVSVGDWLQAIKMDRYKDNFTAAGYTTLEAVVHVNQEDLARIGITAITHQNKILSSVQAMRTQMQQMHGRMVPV

[3] = target: Mitogen-activated protein kinase kinase kinase kinase 5 (Homo sapiens) (UniProt Q9Y4K4); experiment: Inhibition of human KHS assessed as enzyme activity at 1 uM using myelin basic protein as substrate preincubated for 20 mins followed by [gamma-33P]-ATP addition and measured after 120 mins by radiometric Hot-SpotSM Kinase assay relative to control
Chain of Mitogen-activated protein kinase kinase kinase kinase 5 (Homo sapiens) (Q9Y4K4 whole entry, looked up): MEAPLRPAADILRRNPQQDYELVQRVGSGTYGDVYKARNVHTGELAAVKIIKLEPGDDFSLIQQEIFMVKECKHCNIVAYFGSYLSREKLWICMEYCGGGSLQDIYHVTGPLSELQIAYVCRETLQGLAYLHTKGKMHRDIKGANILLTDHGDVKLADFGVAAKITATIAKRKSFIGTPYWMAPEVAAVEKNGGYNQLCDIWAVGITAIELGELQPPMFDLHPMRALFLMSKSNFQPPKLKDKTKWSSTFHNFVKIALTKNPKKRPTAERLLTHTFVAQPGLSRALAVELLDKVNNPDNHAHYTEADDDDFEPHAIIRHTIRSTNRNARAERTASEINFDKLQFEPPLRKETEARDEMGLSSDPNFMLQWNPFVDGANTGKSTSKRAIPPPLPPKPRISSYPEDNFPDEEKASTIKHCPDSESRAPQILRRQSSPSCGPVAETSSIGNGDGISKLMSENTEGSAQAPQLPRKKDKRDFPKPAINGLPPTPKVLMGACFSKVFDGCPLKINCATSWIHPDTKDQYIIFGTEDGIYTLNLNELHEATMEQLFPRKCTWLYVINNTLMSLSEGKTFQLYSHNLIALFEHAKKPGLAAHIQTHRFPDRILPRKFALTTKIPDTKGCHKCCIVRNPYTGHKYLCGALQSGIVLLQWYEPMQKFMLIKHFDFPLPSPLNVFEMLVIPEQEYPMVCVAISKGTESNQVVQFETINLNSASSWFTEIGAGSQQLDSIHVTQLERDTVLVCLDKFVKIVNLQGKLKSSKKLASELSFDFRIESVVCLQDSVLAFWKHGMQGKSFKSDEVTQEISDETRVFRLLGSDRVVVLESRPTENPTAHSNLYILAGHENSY

[4] = target: T1, Serine/threonine-protein kinase D2 (Homo sapiens) (UniProt Q9BZL6); experiment: Inhibition of human PKD2 assessed as enzyme activity at 1 uM using KKLNRTLSVA as substrate preincubated for 20 mins followed by [gamma-33P]-ATP addition and measured after 120 mins by radiometric Hot-SpotSM Kinase assay relative to control
T1 sequence (whole entry): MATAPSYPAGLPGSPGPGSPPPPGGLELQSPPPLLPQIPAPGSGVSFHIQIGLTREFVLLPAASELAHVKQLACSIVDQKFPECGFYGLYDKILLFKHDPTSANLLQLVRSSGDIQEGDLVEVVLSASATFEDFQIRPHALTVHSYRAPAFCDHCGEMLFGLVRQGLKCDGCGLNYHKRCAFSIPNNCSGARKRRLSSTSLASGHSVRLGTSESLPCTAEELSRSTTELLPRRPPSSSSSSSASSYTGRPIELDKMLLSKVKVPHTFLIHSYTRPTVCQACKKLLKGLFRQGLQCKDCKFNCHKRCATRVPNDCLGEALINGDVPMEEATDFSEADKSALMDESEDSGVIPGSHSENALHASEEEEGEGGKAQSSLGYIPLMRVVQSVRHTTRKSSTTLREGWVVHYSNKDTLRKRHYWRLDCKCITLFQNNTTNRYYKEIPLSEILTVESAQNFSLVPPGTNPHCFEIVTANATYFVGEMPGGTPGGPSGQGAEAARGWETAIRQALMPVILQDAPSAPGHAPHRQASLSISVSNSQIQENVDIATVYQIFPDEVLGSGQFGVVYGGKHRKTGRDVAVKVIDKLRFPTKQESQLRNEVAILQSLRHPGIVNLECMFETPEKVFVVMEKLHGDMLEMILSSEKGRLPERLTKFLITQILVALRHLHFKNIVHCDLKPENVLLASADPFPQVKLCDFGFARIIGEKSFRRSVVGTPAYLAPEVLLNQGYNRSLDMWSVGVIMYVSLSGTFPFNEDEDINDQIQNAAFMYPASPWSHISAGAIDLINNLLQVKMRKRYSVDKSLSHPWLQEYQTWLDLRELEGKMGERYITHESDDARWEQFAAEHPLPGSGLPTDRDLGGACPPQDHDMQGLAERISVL

[5] = target: RAF proto-oncogene serine/threonine-protein kinase (Homo sapiens) (UniProt P04049); experiment: Inhibition of human RAF1 assessed as enzyme activity at 1 uM using MEK1 (K97R) as substrate preincubated for 20 mins followed by [gamma-33P]-ATP addition and measured after 120 mins by radiometric Hot-SpotSM Kinase assay relative to control
Chain of RAF proto-oncogene serine/threonine-protein kinase (Homo sapiens) (P04049 whole entry): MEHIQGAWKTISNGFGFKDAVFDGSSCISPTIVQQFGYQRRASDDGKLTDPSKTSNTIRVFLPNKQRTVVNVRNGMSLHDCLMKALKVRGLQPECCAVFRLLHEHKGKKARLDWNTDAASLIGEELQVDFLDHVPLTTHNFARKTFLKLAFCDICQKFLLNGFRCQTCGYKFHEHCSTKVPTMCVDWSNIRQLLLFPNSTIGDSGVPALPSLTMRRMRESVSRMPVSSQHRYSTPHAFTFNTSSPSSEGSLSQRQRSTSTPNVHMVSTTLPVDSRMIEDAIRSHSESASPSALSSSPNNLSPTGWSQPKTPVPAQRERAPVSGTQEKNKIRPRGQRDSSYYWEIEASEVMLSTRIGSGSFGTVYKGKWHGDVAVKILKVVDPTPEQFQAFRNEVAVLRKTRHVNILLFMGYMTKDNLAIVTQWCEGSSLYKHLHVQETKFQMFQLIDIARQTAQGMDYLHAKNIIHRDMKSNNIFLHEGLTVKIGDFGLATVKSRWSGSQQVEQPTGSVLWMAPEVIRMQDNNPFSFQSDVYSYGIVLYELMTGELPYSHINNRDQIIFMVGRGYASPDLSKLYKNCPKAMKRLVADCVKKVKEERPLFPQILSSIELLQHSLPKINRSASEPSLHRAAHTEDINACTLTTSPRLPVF

[6] = target: T2, Mitogen-activated protein kinase kinase kinase 7 (Homo sapiens) (UniProt O43318); experiment: Inhibition of human TAK1 assessed as enzyme activity at 1 uM using casein as substrate preincubated for 20 mins followed by [gamma-33P]-ATP addition and measured after 120 mins by radiometric Hot-SpotSM Kinase assay relative to control
T2 sequence (whole entry): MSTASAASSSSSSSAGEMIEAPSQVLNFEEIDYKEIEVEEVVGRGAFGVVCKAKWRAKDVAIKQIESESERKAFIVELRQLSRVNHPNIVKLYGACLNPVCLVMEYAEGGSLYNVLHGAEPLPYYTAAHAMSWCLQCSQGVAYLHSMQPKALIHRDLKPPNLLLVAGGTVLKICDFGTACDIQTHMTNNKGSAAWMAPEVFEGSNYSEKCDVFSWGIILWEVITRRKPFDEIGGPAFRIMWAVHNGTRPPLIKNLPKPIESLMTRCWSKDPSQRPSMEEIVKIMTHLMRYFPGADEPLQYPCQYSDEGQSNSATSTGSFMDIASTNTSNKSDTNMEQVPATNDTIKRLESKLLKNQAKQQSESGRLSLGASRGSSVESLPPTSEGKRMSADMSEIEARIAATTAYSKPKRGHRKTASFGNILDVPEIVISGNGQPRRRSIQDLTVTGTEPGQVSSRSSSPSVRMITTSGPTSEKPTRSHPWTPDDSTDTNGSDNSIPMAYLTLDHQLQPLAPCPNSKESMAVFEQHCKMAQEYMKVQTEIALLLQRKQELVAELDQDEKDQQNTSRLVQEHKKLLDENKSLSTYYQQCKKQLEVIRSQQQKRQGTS

Chain of RAC-alpha serine/threonine-protein kinase (Homo sapiens) (P31749 whole entry): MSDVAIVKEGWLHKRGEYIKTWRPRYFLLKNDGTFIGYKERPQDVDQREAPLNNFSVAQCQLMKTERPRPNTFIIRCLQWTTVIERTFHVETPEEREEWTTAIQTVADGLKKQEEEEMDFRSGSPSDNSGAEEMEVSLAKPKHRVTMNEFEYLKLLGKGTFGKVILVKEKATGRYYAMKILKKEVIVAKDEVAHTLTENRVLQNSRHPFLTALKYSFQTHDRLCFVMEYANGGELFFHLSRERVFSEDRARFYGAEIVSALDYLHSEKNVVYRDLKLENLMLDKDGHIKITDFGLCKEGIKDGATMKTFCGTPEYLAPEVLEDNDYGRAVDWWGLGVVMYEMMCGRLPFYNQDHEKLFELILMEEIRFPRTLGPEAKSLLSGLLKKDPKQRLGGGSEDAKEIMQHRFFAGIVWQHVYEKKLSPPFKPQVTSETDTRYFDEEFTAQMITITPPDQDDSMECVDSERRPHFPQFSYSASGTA

Row | Structure (SMILES) | Activity [1] | Activity [2] | Activity [3] | Activity [4] | Activity [5] | Activity [6]
1 | CC[C@H](Nc1ncnc2[nH]cnc12)c1nc2cccc(F)c2c(=O)n1-c1ccccc1 | 99% | 93.8% | 95.9% | 101% | 95.3% | 102%
2 | CC(C)Oc1ccc(-c2nn([C@@H](C)c3oc4ccc(F)cc4c(=O)c3-c3cccc(F)c3)c3ncnc(N)c23)cc1F [UMBRALISIB] | 93.3% | 85.9% | 99.5% | 101% | 93.1% | 99%
3 | C[C@H](Nc1ncnc2nc[nH]c12)c1cc2cccc(Cl)c2c(=O)n1-c1ccccc1 | 99.6% | 87.9% | 101% | 99.2% | 93.5% | 98.7%
